“And” between values parts separate entries of the source, which are not always exact repeats. Identical values can stand only once.

In general, IC50 refers to the concentration that inhibits the measured activity by half. By Ki is commonly meant the equilibrium dissociation constant of an inhibitor or competing ligand from its target. Read a high Ki as a looser hold on the target.

The target in experiment [1] is T1, Recombinant human JAK1 (catalytic domain, amino acids 866-1154) (Homo sapiens, UniProt P23458).
T1 construct: catalytic domain, amino acids 866-1154; purchased Invitrogen PV4774
Briefly: JAK1 Ulight-JAK1 peptide assay. Format: biochemical. The following applies: Ulight-JAK1(tyr1023) peptide, 7 μM ATP; individual determinations; read-out: IC50 against JAK1. As to the method: Recombinant human JAK1 (catalytic domain, amino acids 866-1154; catalog number PV4774) was purchased from Invitrogen. 1 ng of JAK1 was incubated with 20 nM Ulight-JAK1(tyr1023) peptide (Perkin Elmer catalog number TRF0121) in kinase reaction buffer (25 mM MOPS pH6.8, 0.01% Brij-35, 5 mM MgCl2, 2 mM DTT, 7 μM ATP) with or without 4 μL containing test compound or vehicle (DMSO, 1% final concentration), in a total volume of 20 μL, in a white 384 Opti plate (Perkin Elmer, catalog number 6007290). […] Readout is performed using the Envision with excitation at 320 nm and measuring emission at 615 nm (Perkin Elmer). Kinase activity was calculated by subtracting relative fluorescence units (RFU) obtained in the presence of a positive control inhibitor (10 μM staurosporine) from RFU obtained in the presence of vehicle. The ability of a test compound to inhibit this activity was determined as: Percentage inhibition=((RFU determined for sample with test compound present−RFU determined for sample with positive control inhibitor) divided by (RFU determined in the presence of vehicle−RFU determined for sample with positive control inhibitor))*100.
A dose dilution series was prepared for the compound enabling the testing of dose-response effects in the JAK1 assay and the calculation of the IC50 for the compound. […] The data are expressed as the average IC50 from the assays±standard error of the mean.

The target in experiment [2] is T2, Recombinant human JAK2 (catalytic domain) (Homo sapiens, UniProt O60674).
T2 construct: Recombinant human JAK2 catalytic domain (amino acids 808-1132; catalog number PV4210); purchased Invitrogen PV4210
Nature of the experiment: JAK2 Ulight-JAK1 peptide assay. The class given is biochemical. Particulars: Ulight-JAK1(tyr1023) peptide, 7.5 μM ATP; individual determinations; read-out: IC50 against JAK2. How it is done: Recombinant human JAK2 (catalytic domain, amino acids 866-1154; catalog number PV4210) was purchased from Invitrogen. 0.0125 mU of JAK2 was incubated with 25 nM Ulight-JAK1(tyr1023) peptide (Perkin Elmer catalog number TRF0121) in kinase reaction buffer (25 mM HEPES pH7.0, 0.01% Triton X-100, 7.5 mM MgCl2, 2 mM DTT, 7.5 μM ATP) with or without 4 μL containing test compound or vehicle (DMSO, 1% final concentration), in a total volume of 20 μL, in a white 384 Opti plate (Perkin Elmer, catalog number 6007290). […] Readout is performed using the Envision with excitation at 320 nm and measuring emission at 615 nm (Perkin Elmer). Kinase activity was calculated by subtracting relative fluorescence units (RFU) obtained in the presence of a positive control inhibitor (10 μM staurosporine) from RFU obtained in the presence of vehicle. The ability of a test compound to inhibit this activity was determined as: Percentage inhibition=((RFU determined for sample with test compound present−RFU determined for sample with positive control inhibitor) divided by (RFU determined in the presence of vehicle−RFU determined for sample with positive control inhibitor))*100. […]

Experiment [3] has as its target T3, Recombinant human JAK3 catalytic domain (Homo sapiens, UniProt P52333).
T3 construct: catalytic domain (amino acids 795-1124; catalog number 08-046); purchased Carna Biosciences 08-046
Nature of the experiment: JAK3 inhibition assay. Format: biochemical. Particulars: polyGT substrate, 1 μM ATP, 33P-gamma-ATP; individual determinations; read-out: IC50 against JAK3. As to the method:
Recombinant human JAK3 catalytic domain (amino acids 795-1124; catalog number 08-046) was purchased from Carna Biosciences. 0.5 ng JAK3 protein was incubated with 2.5 μg polyGT substrate (Sigma catalog number P0275) in kinase reaction buffer (25 mM Tris pH 7.5, 0.5 mM EGTA, 10 mM MgCl2, 2.5 mM DTT, 0.5 mM Na3VO4, 5 mM b-glycerolphosphate, 0.01% Triton X-100, 1 μM non-radioactive ATP, 0.25 μCi 33P-gamma-ATP (Perkin Elmer, catalog number NEG602K001MC) final concentrations) with or without 5 μL containing test compound or vehicle (DMSO, 1% final concentration), in a total volume of 25 μL, in a polypropylene 96-well plate (Greiner, V-bottom). After 45 min at 30° C., reactions were stopped by adding 25 μL/well of 150 mM phosphoric acid. […] 40 μL/well of Microscint-20 was added, the top of the plates was sealed and readout was performed using the Topcount (Perkin Elmer). Kinase activity was calculated by subtracting counts per min (cpm) obtained in the presence of a positive control inhibitor (10 μM staurosporine) from cpm obtained in the presence of vehicle. The ability of a test compound to inhibit this activity was determined as: Percentage inhibition=((cpm determined for sample with test compound present−cpm determined for sample with positive control inhibitor) divided by (cpm determined in the presence of vehicle−cpm determined for sample with positive control inhibitor))*100. […]

The target of experiment [4] is T4, Recombinant human TYK2 catalytic domain (Homo sapiens, UniProt P29597).
T4 construct: catalytic domain (amino acids 871-1187; catalog number 08-147); purchased Carna Biosciences 08-147
T4 sequence (P29597 871-1187): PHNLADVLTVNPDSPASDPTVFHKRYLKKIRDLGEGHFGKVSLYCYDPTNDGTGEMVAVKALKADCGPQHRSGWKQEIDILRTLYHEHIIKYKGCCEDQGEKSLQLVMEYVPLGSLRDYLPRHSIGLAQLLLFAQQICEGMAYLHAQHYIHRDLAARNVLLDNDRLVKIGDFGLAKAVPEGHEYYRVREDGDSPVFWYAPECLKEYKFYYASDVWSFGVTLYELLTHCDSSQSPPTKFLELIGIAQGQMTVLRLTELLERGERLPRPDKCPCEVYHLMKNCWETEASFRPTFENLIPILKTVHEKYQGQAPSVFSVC
Briefly: TYK2 inhibition assay. The class given is biochemical. The following applies: polyGT substrate, 0.1 μM ATP, 33P-gamma-ATP; individual determinations; read-out: IC50 against TYK2. As to the method:
Recombinant human TYK2 catalytic domain (amino acids 871-1187; catalog number 08-147) was purchased from Carna biosciences. 4 ng of TYK2 was incubated with 12.5 μg polyGT substrate (Sigma catalog number P0275) in kinase reaction buffer (25 mM Hepes pH 7.2, 50 mM NaCl, 0.5 mM EDTA, 1 mM DTT, 5 mM MnCl2, 10 mM MgCl2, 0.1% Brij-35, 0.1 μM non-radioactive ATP, 0.125 μCi ^33P-gamma-ATP (Perkin Elmer, catalog number NEG602K001MC) final concentrations) with or without 5 μL containing test compound or vehicle (DMSO, 1% final concentration), in a total volume of 25 μL, in a polypropylene 96-well plate (Greiner, V-bottom). After 90 min at 30° C., reactions were stopped by adding 25 μL/well of 150 mM phosphoric acid. […] 40 μL/well of Microscint-20 was added, the top of the plates was sealed and readout was performed using the Topcount (Perkin Elmer). Kinase activity was calculated by subtracting counts per min (cpm) obtained in the presence of a positive control inhibitor (10 μM staurosporine) from cpm obtained in the presence of vehicle. The ability of a test compound to inhibit this activity was determined as: Percentage inhibition=((cpm determined for sample with test compound present−cpm determined for sample with positive control inhibitor) divided by (cpm determined in the presence of vehicle−cpm determined for sample with positive control inhibitor))*100. […]

Experiment [5] concerns the target T5, TYK2 (Homo sapiens, UniProt P29597).
T5 construct: catalytic domain (amino acids 871-1187; catalog number 08-147); purchased Carna Biosciences 08-147
T5 sequence (P29597 871-1187): T4 sequence (P29597 871-1187)
Briefly: TYK2 Ki determination assay. Format: biochemical. Particulars: Lineweaver-Burk plot, polyGT substrate, varying ATP. As to the method:
For the determination of Ki, different amounts of compound are mixed with the enzyme and the enzymatic reaction is followed as a function of ATP concentration. The Ki is determined by means of double reciprocal plotting of Km vs compound concentration (Lineweaver-Burk plot). TYK2 (Carna Biosciences, 08-147) was used at a final concentration of 160 ng/ml. The substrate was Poly(Glu,Tyr)sodium salt (4:1), MW 20 000-50 000 (Sigma, P0275) The reaction was performed in 25 mM Hepes pH 7.2, 50 mM NaCl, 0.5 mM EDTA, 1 mM DTT, 5 mM MnCl2, 10 mM MgCl2, 0.1% Brij-35 with varying concentrations of ATP and compound and stopped by addition of 150 mM phosphoric acid. Measurement of incorporated phosphate into the substrate polyGT was done by loading the samples on a filter plate (using a harvester, Perkin Elmer) and subsequent washing. Incorporated ^33P in polyGT is measured in a Topcount scintillation counter after addition of scintillation liquid to the filter plates (Perkin Elmer).

Experiment [6] deals with JAK-STAT. Briefly: JAK-STAT signalling assay. The following applies: HeLa cells, pSTAT1(2)-luciferase reporter, human OSM 33 ng/mL; read-out: IC50 against JAK-STAT. The class given is cell-based. How it is done: HeLa cells were maintained in Dulbecco's Modified Eagle's Medium (DMEM) containing 10% heat inactivated fetal calf serum, 100 U/mL penicillin and 100 μg/mL streptomycin. HeLa cells were used at 70% confluence for transfection. 20,000 cells in 87 μL cell culture medium were transiently transfected with 40 ng pSTAT1(2)-luciferase reporter (Panomics), 8 ng of LacZ reporter as internal control reporter and 52 ng of pBSK using 0.32 μL Jet-PEI (Polyplus) as transfection reagent per well in 96-well plate format. After overnight incubation at 37° C., 5% CO2, transfection medium was removed. 81 μL of DMEM+1.5% heat inactivated fetal calf serum was added. 9 μL compound at 10× concentration was added for 60 min and then 10 μL of human OSM (Peprotech) at 33 ng/mL final concentration. […]
40 μL of cell lysate was used to read β-galactosidase activity by adding 180 μL β-Gal solution (30 μl ONPG 4 mg/mL+150 μL β-Galactosidase buffer (0.06 M Na2HPO4, 0.04 M NaH2PO4, 1 mM MgCl2)) for 20 min. The reaction was stopped by addition of 50 μL Na2CO3 1 M. Absorbance was read at 405 nm.
Luciferase activity was measured using 40 μL cell lysate plus 40 μL of Steadylite® as described by the manufacturer (Perkin Elmer), on the Envision (Perkin Elmer). […]
A general note: Reporter assays use an easily measured gene product as a stand-in for the process of interest.

T2 sequence (O60674 808-1132): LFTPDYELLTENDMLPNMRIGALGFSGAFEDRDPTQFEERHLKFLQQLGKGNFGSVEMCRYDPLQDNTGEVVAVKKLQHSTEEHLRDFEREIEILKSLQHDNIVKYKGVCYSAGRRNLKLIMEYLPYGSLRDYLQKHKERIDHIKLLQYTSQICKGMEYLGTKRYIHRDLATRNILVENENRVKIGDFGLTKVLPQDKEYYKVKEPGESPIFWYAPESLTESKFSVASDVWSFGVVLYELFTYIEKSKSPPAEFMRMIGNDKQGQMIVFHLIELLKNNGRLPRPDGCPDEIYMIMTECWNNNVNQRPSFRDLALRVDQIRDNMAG
T3 sequence (P52333 795-1124): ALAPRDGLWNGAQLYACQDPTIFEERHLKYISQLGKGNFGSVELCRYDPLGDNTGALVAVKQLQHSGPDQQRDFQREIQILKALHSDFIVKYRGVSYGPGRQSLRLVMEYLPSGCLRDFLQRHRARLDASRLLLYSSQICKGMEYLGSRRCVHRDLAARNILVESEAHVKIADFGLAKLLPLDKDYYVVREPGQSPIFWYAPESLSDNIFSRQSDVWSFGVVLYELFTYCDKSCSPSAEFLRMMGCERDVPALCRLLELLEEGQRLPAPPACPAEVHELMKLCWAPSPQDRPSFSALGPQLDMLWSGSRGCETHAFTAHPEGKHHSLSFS
T1 sequence (P23458 866-1154): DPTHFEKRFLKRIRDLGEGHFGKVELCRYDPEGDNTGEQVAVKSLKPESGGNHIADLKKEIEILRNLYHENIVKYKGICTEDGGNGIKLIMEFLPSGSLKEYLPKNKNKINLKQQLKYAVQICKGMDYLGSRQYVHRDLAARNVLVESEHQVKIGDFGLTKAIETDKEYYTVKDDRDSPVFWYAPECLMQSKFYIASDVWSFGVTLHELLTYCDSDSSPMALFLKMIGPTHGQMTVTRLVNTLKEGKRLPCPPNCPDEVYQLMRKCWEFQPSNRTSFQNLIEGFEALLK

As to `CC(=O)Nc1cc2c(-c3ccc(CN4CCN(S(C)(=O)=O)CC4)c(F)c3)cccn2n1` [Compound 1], the IC50 in experiment [1] is 8.18 nM and 11.5 nM and 7.71 nM and 35.2 nM and 7.85 nM; in experiment [2] it was 17.3 nM and 11.3 nM and 9.57 nM and 26 nM and 18.2 nM; in experiment [3] it was 271 nM and 299 nM and 213 nM and 428 nM; in experiment [4] it was 167 nM and 135 nM and 119 nM and 157 nM; in experiment [6], 970 nM. This molecule registered a Ki in experiment [5] of 110 nM.

Source of the values: patent US9987272B2, “Compound useful for the treatement of degenerative and inflammatory diseases” (GALAPAGOS NV, priority 2011, dated 2018).
